# Tests used:
# U251 = test: NCI human tumor cell panel: U251 (CNS Cancer); format: cell-based; conditions: for GI50: U-251, U251, read-out: Log10 GI50 (converted); for IC (TGI): U-251, U251, read-out: Log10 TGI (converted)
# LOX IMVI = test: NCI human tumor cell panel: LOX IMVI (Melanoma); format: cell-based; conditions: for GI50: read-out: Log10 GI50 (converted); for IC (TGI): read-out: Log10 TGI (converted)
# NCI-H23 = test: NCI human tumor cell panel: NCI-H23 (Non-Small Cell Lung Cancer); format: cell-based; conditions: for GI50: NCI-H23, read-out: Log10 GI50 (converted)
# M14 = test: NCI human tumor cell panel: M14 (Melanoma); format: cell-based; conditions: for GI50: M14, read-out: Log10 GI50 (converted); for IC (TGI): M14, read-out: Log10 TGI (converted)
# HOP-62 = test: NCI human tumor cell panel: HOP-62 (Non-Small Cell Lung Cancer); format: cell-based; conditions: for GI50: HOP-62, read-out: Log10 GI50 (converted); for IC (TGI): HOP-62, read-out: Log10 TGI (converted)
# SF-539 = test: NCI human tumor cell panel: SF-539 (CNS Cancer); format: cell-based; conditions: for GI50: SF-539, read-out: Log10 GI50 (converted); for IC (TGI): SF-539, read-out: Log10 TGI (converted)
# PC-3 = test: NCI human tumor cell panel: PC-3 (Prostate Cancer); format: cell-based; conditions: for GI50: PC-3, read-out: Log10 GI50 (converted); for IC (TGI): PC-3, read-out: Log10 TGI (converted)
# UO-31 = test: NCI human tumor cell panel: UO-31 (Renal Cancer); format: cell-based; conditions: for GI50: UO-31, read-out: Log10 GI50 (converted); for IC (TGI): UO-31, read-out: Log10 TGI (converted)
# HOP-92 = test: NCI human tumor cell panel: HOP-92 (Non-Small Cell Lung Cancer); conditions: for GI50: HOP-92, read-out: Log10 GI50 (converted); for IC (TGI): HOP-92, read-out: Log10 TGI
# MCF7/ADR-RES = test: NCI human tumor cell panel: MCF7/ADR-RES (Breast Cancer); format: cell-based; conditions: for GI50: read-out: Log10 GI50 (converted); for IC (TGI): read-out: Log10 TGI (converted)
# OVCAR-4 = test: NCI human tumor cell panel: OVCAR-4 (Ovarian Cancer); format: cell-based; conditions: for GI50: OVCAR-4, read-out: Log10 GI50 (converted); for IC (TGI): OVCAR-4, read-out: Log10 TGI (converted)
# SF-295 = test: NCI human tumor cell panel: SF-295 (CNS Cancer); format: cell-based; conditions: for GI50: SF-295, read-out: Log10 GI50 (converted); for IC (TGI): SF-295, read-out: Log10 TGI (converted)
# NCI-H460 = test: NCI human tumor cell panel: NCI-H460 (Non-Small Cell Lung Cancer); format: cell-based; conditions: for GI50: NCI-H460, read-out: Log10 GI50 (converted); for IC (TGI): NCI-H460, read-out: Log10 TGI (converted)
# SK-MEL-28 = test: NCI human tumor cell panel: SK-MEL-28 (Melanoma); format: cell-based; conditions: for GI50: SK-MEL-28, read-out: Log10 GI50 (converted); for IC (TGI): SK-MEL-28, read-out: Log10 TGI (converted)
# 786-0 = test: NCI human tumor cell panel: 786-0 (Renal Cancer); format: cell-based; conditions: for GI50: 786-0, read-out: Log10 GI50 (converted); for IC (TGI): 786-0, read-out: Log10 TGI (converted)
# EKVX = test: NCI human tumor cell panel: EKVX (Non-Small Cell Lung Cancer); format: cell-based; conditions: for GI50: read-out: Log10 GI50 (converted); for IC (TGI): read-out: Log10 TGI (converted)
# NCI-H522 = test: NCI human tumor cell panel: NCI-H522 (Non-Small Cell Lung Cancer); conditions: for GI50: NCI-H522, read-out: Log10 GI50 (converted); for IC (TGI): NCI-H522, read-out: Log10 TGI
# HCC-2998 = test: NCI human tumor cell panel: HCC-2998 (Colon Cancer); format: cell-based; conditions: for GI50: HCC-2998, read-out: Log10 GI50 (converted); for IC (TGI): HCC-2998, read-out: Log10 TGI (converted)
# MDA-N = test: NCI human tumor cell panel: MDA-N (Breast Cancer); format: cell-based; conditions: for GI50: read-out: Log10 GI50 (converted); for IC (TGI): read-out: Log10 TGI (converted)
# TK-10 = test: NCI human tumor cell panel: TK-10 (Renal Cancer); format: cell-based; conditions: for GI50: TK-10, read-out: Log10 GI50 (converted); for IC (TGI): TK-10, read-out: Log10 TGI (converted)
# IGROV1 = test: NCI human tumor cell panel: IGROV1 (Ovarian Cancer); format: cell-based
# SNB-75 = test: NCI human tumor cell panel: SNB-75 (CNS Cancer); format: cell-based
# HT29 = test: NCI human tumor cell panel: HT29 (Colon Cancer); format: cell-based; conditions: for IC (TGI): HT-29, HT29, read-out: Log10 TGI (converted)
# SK-MEL-2 = test: NCI human tumor cell panel: SK-MEL-2 (Melanoma); format: cell-based; conditions: for GI50: SK-MEL-2, read-out: Log10 GI50 (converted); for IC (TGI): SK-MEL-2, read-out: Log10 TGI (converted)
# OVCAR-5 = test: NCI human tumor cell panel: OVCAR-5 (Ovarian Cancer); format: cell-based; conditions: for GI50: OVCAR-5, read-out: Log10 GI50 (converted); for IC (TGI): OVCAR-5, read-out: Log10 TGI (converted)
# SR = test: NCI human tumor cell panel: SR (Leukemia); format: cell-based; conditions: for GI50: read-out: Log10 GI50 (converted); for IC (TGI): read-out: Log10 TGI (converted)
# SNB-19 = test: NCI human tumor cell panel: SNB-19 (CNS Cancer); format: cell-based; conditions: for GI50: SNB-19, read-out: Log10 GI50 (converted); for IC (TGI): SNB-19, read-out: Log10 TGI (converted)
# HCT-15 = test: NCI human tumor cell panel: HCT-15 (Colon Cancer); format: cell-based; conditions: for GI50: HCT-15, read-out: Log10 GI50 (converted); for IC (TGI): HCT-15, read-out: Log10 TGI (converted)
# NCI-H322M = test: cells; format: cell-based; conditions: Homo sapiens
# BT-549 = test: NCI human tumor cell panel: BT-549 (Breast Cancer); format: cell-based
# MDA-MB-435 = test: NCI human tumor cell panel: MDA-MB-435 (Breast Cancer); format: cell-based
# HS 578T = test: NCI human tumor cell panel: HS 578T (Breast Cancer); format: cell-based
# [1] = read-out: Log10 GI50 (converted)
# [2] = read-out: Log10 TGI (converted)
smiles,measurement,setting,value
OCc1ccc(-c2ccc(-c3ccc[se]3)[se]2)[se]1 [compound 675246],GI50,U251,0.0708 µM
same,IC (TGI),U251,12.3 µM
same,GI50,LOX IMVI,3.63 µM
same,IC (TGI),LOX IMVI,9.77 µM
same,GI50,NCI-H23,13.2 µM
same,GI50,M14,8.71 µM
same,IC (TGI),M14,24 µM
same,GI50,HOP-62,7.24 µM
same,IC (TGI),HOP-62,20.4 µM
same,GI50,SF-539,12.3 µM
same,IC (TGI),SF-539,25.1 µM
same,GI50,PC-3,3.8 µM
same,IC (TGI),PC-3,13.2 µM
same,GI50,UO-31,6.17 µM
same,IC (TGI),UO-31,38.9 µM
same,GI50,HOP-92,2.63 µM
same,IC (TGI),HOP-92,11.2 µM
same,GI50,MCF7/ADR-RES,5.13 µM
same,IC (TGI),MCF7/ADR-RES,46.8 µM
same,GI50,OVCAR-4,0.575 µM
same,IC (TGI),OVCAR-4,12.3 µM
same,GI50,SF-295,10.7 µM
same,IC (TGI),SF-295,27.5 µM
same,GI50,NCI-H460,0.324 µM
same,IC (TGI),NCI-H460,3.63 µM
same,GI50,SK-MEL-28,7.41 µM
same,IC (TGI),SK-MEL-28,21.9 µM
same,GI50,786-0,2.19 µM
same,IC (TGI),786-0,5.25 µM
same,GI50,EKVX,5.5 µM
same,IC (TGI),EKVX,17.4 µM
same,GI50,NCI-H522,2.45 µM
same,IC (TGI),NCI-H522,6.61 µM
same,GI50,HCC-2998,1.23 µM
same,IC (TGI),HCC-2998,11.7 µM
same,GI50,MDA-N,9.77 µM
same,IC (TGI),MDA-N,56.2 µM
same,GI50,TK-10,1.91 µM
same,IC (TGI),TK-10,10.7 µM
same,GI50,"IGROV1; IGROV-1, IGROV1, read-out: Log10 GI50 (converted)",0.0537 µM
same,IC (TGI),"IGROV1; IGROV-1, IGROV1, read-out: Log10 TGI (converted)",2.24 µM
same,GI50,"SNB-75; SNB-75, read-out: Log10 GI50 (converted)",3.89 µM
same,IC (TGI),"SNB-75; SNB-75, read-out: Log10 TGI (converted)",> 100 µM
same,GI50,"HT29; HT-29, HT29, read-out: Log10 GI50 (converted)",0.851 µM
same,IC (TGI),HT29,10.7 µM
same,GI50,SK-MEL-2,9.12 µM
same,IC (TGI),SK-MEL-2,25.7 µM
same,GI50,OVCAR-5,0.182 µM
same,IC (TGI),OVCAR-5,25.1 µM
same,GI50,SR,6.61 µM
same,IC (TGI),SR,> 100 µM
same,GI50,SNB-19,12.3 µM
same,IC (TGI),SNB-19,52.5 µM
same,GI50,HCT-15,4.27 µM
same,IC (TGI),HCT-15,17.8 µM
OCc1ccc(-c2ccc(-c3ccc(CO)s3)[se]2)s1 [compound 675343],GI50,U251,< 0.01 µM
same,IC (TGI),U251,> 100 µM
same,GI50,LOX IMVI,> 100 µM
same,IC (TGI),LOX IMVI,> 100 µM
same,GI50,NCI-H23,> 100 µM
same,IC (TGI),"NCI-H23; NCI-H23, read-out: Log10 TGI (converted)",> 100 µM
same,GI50,M14,> 100 µM
same,IC (TGI),M14,> 100 µM
same,GI50,HOP-62,> 100 µM
same,IC (TGI),HOP-62,> 100 µM
same,GI50,SF-539,> 100 µM
same,IC (TGI),SF-539,> 100 µM
same,GI50,PC-3,> 100 µM
same,IC (TGI),PC-3,> 100 µM
same,GI50,UO-31,> 100 µM
same,IC (TGI),UO-31,> 100 µM
same,GI50,HOP-92,40.7 µM
same,IC (TGI),HOP-92,> 100 µM
same,GI50,MCF7/ADR-RES,> 100 µM
same,IC (TGI),MCF7/ADR-RES,> 100 µM
same,GI50,NCI-H322M; [1],9.77 µM
same,IC (TGI),NCI-H322M; [2],> 100 µM
same,GI50,OVCAR-4,< 0.01 µM
same,IC (TGI),OVCAR-4,> 100 µM
same,GI50,SF-295,> 100 µM
same,IC (TGI),SF-295,> 100 µM
same,GI50,NCI-H460,< 0.01 µM
same,IC (TGI),NCI-H460,> 100 µM
same,GI50,SK-MEL-28,> 100 µM
same,IC (TGI),SK-MEL-28,> 100 µM
same,GI50,786-0,> 100 µM
same,IC (TGI),786-0,> 100 µM
same,GI50,EKVX,> 100 µM
same,IC (TGI),EKVX,> 100 µM
same,GI50,NCI-H522,≥ 100 µM
same,IC (TGI),NCI-H522,> 100 µM
same,GI50,HCC-2998,< 0.01 µM
same,IC (TGI),HCC-2998,3.39 µM
same,GI50,"BT-549; BT-549, read-out: Log10 GI50 (converted)",> 100 µM
same,IC (TGI),"BT-549; BT-549, read-out: Log10 TGI (converted)",> 100 µM
same,GI50,MDA-N,> 100 µM
same,IC (TGI),MDA-N,> 100 µM
same,GI50,TK-10,< 0.01 µM
same,IC (TGI),TK-10,< 0.01 µM
same,IC (TGI),HT29,> 100 µM
same,GI50,"MDA-MB-435; MDA-MB-435, read-out: Log10 GI50 (converted)",> 100 µM
same,IC (TGI),"MDA-MB-435; MDA-MB-435, read-out: Log10 TGI (converted)",> 100 µM
same,GI50,SK-MEL-2,> 100 µM
same,IC (TGI),SK-MEL-2,> 100 µM
same,GI50,OVCAR-5,0.158 µM
same,IC (TGI),OVCAR-5,> 100 µM
same,GI50,SR,> 100 µM
same,IC (TGI),SR,> 100 µM
same,GI50,SNB-19,> 100 µM
same,IC (TGI),SNB-19,> 100 µM
same,GI50,HCT-15,> 100 µM
same,IC (TGI),HCT-15,> 100 µM
same,GI50,HS 578T; [1],> 100 µM
same,IC (TGI),HS 578T; [2],> 100 µM
